Patent US12569170B2, “Paramagnetic sodium NMR macrocyclic-based biosensors, and associated methods” (Yale University, priority 2021, dated 2026)
“Also recorded” adds a separate entry of the source.

How the values were obtained:
[1] = Concentration effects of Dotarem and Gadavist on ^23Na spectra, concentric tubes phantom; assay type: physicochemical; conditions: 20 mM, 10 mM, 5 mM in outer compartment, tubes parallel to the magnetic field
Experimental: Spectra are shown for 20 mM, 10 mM, and 5 mM, where 0 ppm corresponds to the natural, unshifted ^23Na resonance of the inner compartment to which no agent was added.

[2] = Comparison of ^23Na shiftability and broadening potential of DOTP agents; assay type: physicochemical
[3] = system: U87-bearing rat brain; experiment: In vivo ^23Na-MRSI line broadening in glioma models
From the text: FIGS. 10C-10F illustrates images according to certain embodiments of the disclosure. […] However, the ^23Na linewidth analysis by TmDOTP^5− is confounded by its high ^23Na shiftability. This peak separation in vivo overestimates the full-width at half-maximum (FWHM) calculations and exaggerates the measured ^23Na linewidths.
Slice 1 is most superficial, and slice 3 is the deepest. The tumor outline is depicted in white in all columns.
This establishes GdDOTP^5−-induced ^23Na linewidth broadening as a potential surrogate marker for the altered Na^+ biodistribution within tumors. Thus, in brain tumor models, TmDOTP^5− with ^23Na-NMR can separate Na^+ in intracellular, blood, and interstitial pools, while GdDOTP^5− can distinguish Na^+ within intracellular and extracellular (i.e., blood and interstitial) pools.
Because the majority of the present studies looked at ^23Na chemical shift, the line broadening capabilities of these paramagnetic agents were also interrogated. […] This is due to the high magnetic moment of Gd^3+ which contributes to some degree of anisotropy to the paramagnetic susceptibility. […] Crucially, this family of paramagnetic agents has allowed to insightful probing of the tumor microenvironment and drawing of significant conclusions about tumor aggressiveness based on spectroscopic analysis.

[4] = Bulk magnetic susceptibility (BMS) contribution to chemical shift in phantoms; assay type: physicochemical; conditions: phantoms
From the text: Upon translation of the present in vitro results to in vivo situations, certain confounding factors must be addressed. In the interstitial space, there are additional cations such as calcium (Ca^2+), magnesium (Mg^2+) and K^+ which will also bind to anionic contrast agents like TmDOTP^5−. However, physiologically their concentrations are low compared to Na^+. […] Additionally, there is a contribution to the chemical shift from bulk magnetic susceptibility (BMS) changes brought about by TmDOTP^5− in addition to the hyperfine shifts induced by interactions with Na^+. Experiments were performed on different DOTP^8− salts in phantoms parallel and perpendicular to the main magnetic field B0, and also spherical phantoms in which there was no BMS contribution. Only a small portion (˜2%) of the total chemical shift for TmDOTP^5− was due to BMS arising due to anisotropy of the paramagnetic susceptibility, and the remainder was the hyperfine shift.

[5] = system: U87 tumors; experiment: Sorafenib treatment of U87 GBM models monitored by ^1H-MRI and ^23Na-MRSI; assay type: in vivo, rat; conditions: for tumor growth: U87, 0.1 g/kg body weight daily oral gavage from day 9, imaged 6 days after, vs DMSO control
Experimental: FIG. 9 depicts spatial distributions of compartmentalized ^23Na signals (Na^+b, Na^+e, Na^+i) as well as transendothelial (ΔNa^+end) and transmembrane (ΔNa^+mem) gradients in a pair of U87 tumors, one of which was treated with sorafenib, an anti-angiogenic tyrosine kinase inhibitor that targets vascular endothelial growth factor receptor (VEGFR) and platelet-derived growth factor receptor (PDGFR). Sorafenib dosage was 0.1 g/kg body weight, dissolved in dimethylsulfoxide (DMSO) for the treated animal, whereas the untreated control received an equivalent dose of pure DMSO. Daily treatment began on day 9 post-tumor-inoculation, and imaging was performed an additional 6 days after.
Having established the utility of ^23Na-MRSI in vivo with TmDOTP^5−, additional applications of Na^+ imaging were explored, such as monitoring therapeutic efficacy or using other agents to probe different spectroscopic characteristics. A separate cohort of U87 GBM models were treated with sorafenib, an anti-angiogenic tyrosine kinase inhibitor, with some animals kept as controls. Sorafenib treatment (0.1 g/kg body weight) began on day 9 following tumor inoculation and was dissolved in dimethylsulfoxide (DMSO) to be delivered via oral gavage. […] Therefore, ^23Na-MRSI with TmDOTP^5− has potential to effectively image the efficacy of cancer drugs.

Molecule: O=C([O-])CN1CCN(CC(=O)[O-])CCN([C@H](CO)[C@H](O)CO)CCN(CC(=O)[O-])CC1.[Gd+3] [Gadavist, Gd^3+2,2′,2″-(10-((2R,3S)-1,3,4-trihydroxybutan-2-yl)-1,4,7,10-tetraazacyclododecane-1,4,7-triyl)triacetate]
- ^23Na shiftability [1]: shiftability stronger than the other Gd^3+-based agents with macrocyclic chelates

Molecule: O=P([O-])([O-])CN1CCN(CP(=O)([O-])[O-])CCN(CP(=O)([O-])[O-])CCN(CP(=O)([O-])[O-])CC1.[Gd+3] [GdDOTP^5−]
- broadening potential (sensitivity of linewidth to agent concentration), words [2]: high broadening potentials; also recorded: comparable broadening potential as TmDOTP^5−
- shiftability (sensitivity of ^23Na chemical shift to agent concentration), words [2]: without inducing ^23Na shift differences between compartments; also recorded: smaller shiftability
- ^23Na line broadening in tumor versus normal tissue ([3]; glioma models, after agent infusion): most prominent within in the tumor; also recorded: considerable linewidth broadening within gliomas; also recorded: larger within the tumor as well compared to healthy tissue
- correlation of tumoral line broadening with increases in ΔNa^+end and decreases in ΔNa^+mem ([3]; same rat, gradients from TmDOTP^5− shifts): correlated well
- BMS contribution to chemical shift [4]: dominated by BMS effect

Molecule: CNC(=O)c1cc(Oc2ccc(NC(=O)Nc3ccc(Cl)c(C(F)(F)F)c3)cc2)ccn1 [sorafenib]
- tumor growth [5]: slow tumor growth compared to untreated animals
- tumor growth ([5]; listed as Sorafenib): retarded the growth rate of the tumor
- region of alterations in Na^+ distribution (elevated Na b and ΔNa^+end, decreased Na^+e and ΔNa^+mem) ([5]; U87, treated vs untreated tumor, ^23Na-MRSI with TmDOTP^5−): confined to a smaller region for the treated tumor

Molecule: Gd^3+2-[4,7,10-tris(carboxymethyl)-1,4,7,10-tetrazacyclododec-1-yl]acetate [Dotarem]
- ^23Na shiftability [1]: shiftability stronger than the other Gd^3+-based agents with macrocyclic chelates
